Reference: patent US9096853B2, “Modified siRNA molecules incorporating 5-fluoro-2′-deoxyuridine residues to enhance cytotoxicity” (U.S. Department of Veterans Affairs, priority 2012, dated 2015)
[5FU] = 5-fluorouracil base, with d sugar it is 5-fluoro-2'-deoxyuridine (FdU); d = 2'-deoxy (DNA); r = 2'-OH (RNA)

How the values were obtained:
GC3/TK− cells = experiment: Cell proliferation (WST-1) in thymidine kinase-deficient GC3/TK− cells; assay type: cell-based, human; settings: 6 hr transfection, additional 5 days
Protocol: FIGS. 2A-B illustrate the effect of TK knockdown on the cytotoxicity of the FdU-modified ssiRNA. (A) RKO cells were transfected with 1 nM TK siRNA (lanes 3 and 4) or Mis-dU/dA (lane 5). After 6 hr, the medium was replaced with fresh medium. On the following day, cells were transfected with TS6-FdU/dA ssiRNA (1 nM) for 6 hr (lanes 2, 4, and 5) after which time, cells were harvested for immunoblot analysis. RKO cells were treated with 5-fluorouracil (5 nM) for 6 hr before harvesting (lane 6). (B) GC3/TK− cells were transfected with various concentrations of TS6-dU/dA or TS6-FdU/dA ssiRNA. After 6 hr, the medium was replaced and after an additional 5 days, cell proliferation was determined with the WST-1 assay;
The human colon cancer RKO cell line, originally obtained from ATCC, has been previously well-characterized and was maintained in RPMI-1640 (Invitrogen; Carlsbad, Calif.) with 10% (v/v) dialyzed fetal bovine serum at 37° C. in a humidified incubator with 5% CO2 (Reference 11). The thymidine kinase-deficient GC3/TK− cells were a gift from Dr. Janet Houghton (Reference 18). Cells were routinely authenticated by morphology and growth curve analysis. […]
RKO cells were plated in 96-well plates at a density of 800 cells/well. […] Cell proliferation/viability was quantified by the WST-1 assay (Roche; Indianapolis, Ind.).

RKO cells = experiment: Flow cytometry, FITC Annexin V apoptosis detection; assay type: cell-based, human; settings: ssiRNA 10 nM, after 72 hr
Protocol: FIGS. 6A-B illustrate induction of apoptosis after transfection of FdU-containing ssiRNAs. RKO cells were transfected with various TS6 ssiRNAs (10 nM). After 6 hr, the medium was replaced with fresh medium. After 72 hr, cells were harvested, fixed, stained, and analyzed by flow cytometry as described in the Materials and Methods section. (A) Representative cytometry images from one experiment. Lower left quadrant represents viable cells; lower right quadrant, early apoptotic cells; upper right quadrant, late apoptotic cells; upper left quadrant, necrotic cells. (B) Percentage values represent the mean±S.D. from 3 separate experiments.
RKO cells were plated in T-25 cm^2 flasks at a density of 2.5×10^5/flask. Cells were transfected on the following day with siRNA/LF2000 complexes for 6 hr. After medium replacement and additional incubation for 48 and 72 hr, respectively, cells were harvested, washed twice with PBS, resuspended in 1× binding buffer at a concentration of 1×10^6 cells/mL according to the manufacturer's protocol, stained with FITC Annexin V Apoptosis Detection Kit (BD Biosciences; San Jose, Calif.), and analyzed on the BD Accuri C6 Flow Cytometer (BD Accuri Cytometers Inc.; Ann Arbor, Mich.) at the UPCI Flow Cytometry Facility.

[1] = system: human colon cancer RKO cell line; experiment: Clonogenic assay in RKO cells; assay type: cell-based; settings: for IC50: 6 hr exposure, colonies counted after 8 days, mean ± S.D., at least 3 experiments
Protocol: RKO cells were plated in 6-well plates at a density of 600 cells/well. On the following day, cells were transfected with ssiRNA/LF2000 complexes for 6 hr after which time, the growth medium was replaced. Similarly, FdU was added to wells for 6 hr followed by medium replacement. After 8 days, cell colonies were fixed with Trypan blue solution (75% methanol/25% acetic acid/0.25% trypan blue), washed, and air-dried before counting colonies >50 cells.

[2] = system: p53, Fas, cleaved PARP, γH2AX, p-ATM; experiment: Immunoblot of DNA damage and apoptosis signaling proteins, time course; assay type: cell-based, human; settings: RKO cells, ssiRNA 10 nM, 0-72 hr
Protocol: FIG. 5 illustrates time-dependent effects of FdU-containing ssiRNAs on protein expression. RKO cells were transfected with various TS6 ssiRNAs (10 nM). After 6 hr, the medium was replaced, and cells were harvested for immunoblot blot analysis at the following times: before39 transfection (pre) and 0, 24, 48, and 72 hr after transfection. Images shown are representative blots from at least 4 different experiments; and
(§1) Protein concentrations of cell lysates were determined using the DC Protein Assay (Bio-Rad; Hercules, Calif.). Equal amounts of protein (30 μg) from each cell lysate were resolved on SDS-PAGE using the method of Laemmli (Reference 19) and transferred onto 0.45 μm nitrocellulose membranes (Bio-Rad). Membranes were blocked and incubated overnight with primary antibodies at 4° C. The following antibodies were used in the experiments: anti-TS (Clone 4H4B1; Invitrogen), anti-TS (#5449; Cell Signaling; San Francisco, Calif.), anti-p21 Waf1/Cip1 (#2947; Cell Signaling), anti-p53 (#sc-126; Santa Cruz Biotechnology; Santa Cruz, Calif.), anti-PARP (#9542; Cell Signaling), anti-Fas (#4233; Cell Signaling), anti-phospho-histone H2A.X (Ser139) (#2577; Cell Signaling), anti-histone H2A.X (#7631; Cell Signaling), anti-phospho-ATM (pS1981; EPITOMICS Inc.; Burlingame, Calif.), anti-ATM (#A1106; Sigma), and anti-α-tubulin (EMD Biosciences; San Diego, Calif.). After multiple TBST washes (1×TBS, 0.1% Tween-20), membranes were incubated with corresponding horseradish peroxidase-conjugated secondary antibodies (Bio-Rad) for 1 hr at room temperature. Proteins were detected by the enhanced chemiluminescence method (SuperSignal West Pico substrate; Pierce; Rockford, Ill.). Quantitation of signal intensities was performed by densitometry on a Xerox scanner using NIH IMAGEJ software.

[3] = system: thymidylate synthase (TS) protein; experiment: Immunoblot analysis of TS protein (free and ITC-bound), Odyssey quantitation; assay type: cell-based, human; settings: RKO cells; for formation of the ITC immediately after transfection: ssiRNA 10 nM, 0 hr after 6 hr transfection
[4] = system: human colon cancer RKO cell line; experiment: Cell proliferation assay (WST-1) in RKO cells; assay type: cell-based; settings: for IC50: 6 hr exposure then 96 hr growth, mean ± S.D., at least 3 experiments
Protocol: RKO cells were plated in 96-well plates at a density of 800 cells/well. On the following day, cells were incubated with ssiRNA/LF2000 complexes for 6 hr, after which time, the growth medium was replaced, and cells were grown for an additional 96 hr. Similarly, RKO cells were treated with FdU (#F0503, Sigma) for 6 hr followed by medium replacement and then allowed to grow for an additional 96 hr. Cell proliferation/viability was quantified by the WST-1 assay (Roche; Indianapolis, Ind.).

[5] = system: thymidylate synthase (TS) protein; experiment: Immunoblot analysis of TS protein (free and ITC-bound), Odyssey quantitation; assay type: cell-based, human; settings: RKO cells, ssiRNA 1 nM, 48 hr; for Free TS (%) / ITC-Bound TS (%): normalized to free TS protein in mock-transfected cells (LF2000) set to 100%, mean ± S.D., 6 experiments
Protocol: (§2) FIGS. 1A-B illustrate the effect of FdU incorporation in ssiRNA on TS protein expression. RKO cells were transfected with TS6 ssiRNAs (1 nM) containing various 3′-overhangs. After 6 hr, the medium was replaced. After an additional 48 hr, cells were harvested and processed for immunoblot and qPCR analysis as described in the Materials and Methods section. (A) Representative blot from 4 experiments. (B) All qPCR values represent the mean±S.D. from at least 3 separate experiments performed in triplicate. The normalized amount of TS mRNA from mock-transfected cells (LF2000) was set to 1.0 and all other values compared against that value. ITC, inhibitory ternary complex;
Cells were plated at a density of 1.5×10^5 cells/well. On the following day, ssiRNAs were complexed with Lipofectamine 2000 (LF2000, Invitrogen) in serum-free RPMI-1640 medium and added to the plated cells. After 48 hr, cells were rinsed with PBS and scraped in cell lysis buffer (10 mM Tris pH7.4, 150 mM NaCl, 1 mM EDTA, 1% IGEPAL, 0.5% sodium deoxycholate, and 0.1% SDS) containing freshly added Protease Inhibitor Cocktail (Sigma; St. Louis, Mo.), 1 mM phenylmethylsulfonyl fluoride, and phosphatase inhibitors (Sigma). Lysates were sonicated and then centrifuged at 14,000 rpm for 30 min at 4° C. to remove debris. Cell lysates were stored at −80° C. for future use. For mRNA analysis, total RNA was extracted using Trizol (Invitrogen) and stored at −80° C. for future use.
as §1
Immunoblots were prepared as described above. After incubation with anti-TS polyclonal antibody, membranes were blocked with the Odyssey blocking buffer and incubated with IRDye 800CW goat anti-rabbit antibody (LI-COR Biosciences; Lincoln, Nebr., USA) according to the manufacturer instructions. The fluorescent signal was detected and quantified using the Odyssey infrared imaging system (LI-COR).

TS mRNA = experiment: Real time qRT-PCR analysis of TS mRNA; assay type: cell-based, human; settings: RKO cells, ssiRNA 1 nM, 48 hr
Protocol: as §2
Cells were plated at a density of 1.5×10^5 cells/well. […]
The first-strand cDNA was synthesized using 1.0 μg total RNA and the iScript™ Reverse Transcription Supermix for real-time quantitative polymerase chain reaction (qRT-PCR) (Bio-Rad; Hercules, Calif.). PCR was performed in triplicate using the SsoFast™ Probes Supermix (Bio-Rad) in a final reaction volume of 10 μL with gene-specific primer/probe sets, and a standard thermal cycling procedure (40 cycles) on a Bio-Rad CFX96™ Real-Time PCR System. mRNA levels of TS and 18S RNA were assessed using the TaqMan Gene Expression real-time PCR assays (Applied Biosystems; assay ID: Hs00426586_m1 and Hs03928990_g1, respectively). Results were expressed as the threshold cycle (Ct). […]

| Substance | IC50 (GC3/TK− cells) [nM] | early and late apoptotic cells (RKO cells) | lower IC50 versus non-targeted mismatch-FdU/dA, clonogenic assay [1] [fold] | IC50 [1] [nM] | biomarkers of DNA damage, γH2AX and p-ATM [2] | cleaved PARP, a marker of apoptosis [2] | p53 levels [2] | formation of the ITC after knockdown of thymidine kinase ([3]; TK siRNA 1 nM, next day TS6-FdU/dA 1 nM for 6 hr) | formation of the ITC immediately after transfection [3] | enhancement of IC50 versus non-targeted mismatch-FdU/dA, growth assay [4] [fold] | IC50 [4] [nM] | Free TS (%) [5] [%] | ITC-Bound TS (%) [5] [%] | effect on TS mRNA expression (in words) (TS mRNA) | effect on TS protein expression (in words) [5] |
| --- | --- | --- | --- | --- | --- | --- | --- | --- | --- | --- | --- | --- | --- | --- | --- |
| TS6-FdU/dA: TS-targeted ssiRNA, all 3′-end overhang dU of sense strand replaced with FdU (5 FdU); SEQ ID NO: 9 and 10 (chain 1 GGAUAUUGUCAGUCUUUAGGUUUUU; chain 2 CCUAAAGACUGACAAUAUCCAAAAA; chain 1: sugars from the 5' end r20 d5, [5FU] at 21, 22, 23, 24, 25, backbone not given here; chain 2: sugars from the 5' end r20 d5, backbone not given here) | 45.9 ± 18.6 | significant increase | 10 | 0.17 | strongly induced | elevated | rapidly induced | prevented formation of the ITC | formation of the ITC is observed | 3.5 | 0.81 | 29.8 ± 12.0 | 22.0 ± 11.8 | – | – |
| Mis-FdU/dA: control, non-targeted ssiRNA containing 5 FdU residues on the sense strand; SEQ ID NO: 21 and 22 (chain 1 GGAUACUGCCAAUCUCUAGGUUUUU; chain 2 CCUAGAGAUUGGCAGUAUCCAAAAA; chain 1: sugars from the 5' end r20 d5, [5FU] at 21, 22, 23, 24, 25, backbone not given here; chain 2: sugars from the 5' end r20 d5, backbone not given here) | – | – | – | 1.75 | little to no effect | – | – | – | formation of the ITC is observed | – | 2.88 | 89.5 ± 26.2 | 45.6 ± 21.1 | absolutely no inhibitory effect | absolutely no inhibitory effect |
